Measured values as given in patent publication US10105357B2, “Indication of antibiotic drugs for preparation of cancer inhibition pharmaceutical composition” (LAUNX BIOMEDICAL CO., LTD., priority 2014, dated 2018).
Read-outs that look alike come from different tables or passages of the source.

Legend:
Format in all cases: cell-based, human
[1] = tested on: LoVo (Colorectal Adenocarcinoma); assay: Cell viability analysis, colon cancer LoVo; details: LoVo; for viability at 10 µM: Homo sapiens, 72 h
NIH: OVCAR-3 = assay: Cell viability analysis, ovarian cancer NIH: OVCAR-3
[2] = tested on: 786-O (Renal adenocarcinoma); assay: Cell viability analysis, renal cancer 786-O
[3] = tested on: AGS (Gastric Adenocarcinoma); assay: Cell viability analysis, gastric cancer AGS; details: Homo sapiens, 72 h
[4] = tested on: HeLa (Cervix Adenocarcinoma); assay: Cell viability analysis, cervical cancer HeLa; details: HeLa; for viability at 10 µM: Homo sapiens, 72 h
TOV-21G = assay: Cell viability analysis, ovarian cancer TOV-21G
[5] = tested on: Hep3B (hepatocellular carcinoma); assay: Cell viability analysis, hepatic cancer Hep3B; details: Hep3B
[6] = tested on: HL-60 (Acute Promyelocytic Leukemia); assay: Cell viability analysis, leukemia HL-60; details: Homo sapiens, HL-60, 72 h, read-out: cell viability (survival rate), HL-60, drug 10 μM, 72 hours, WST-1, OD450 nm
[7] = tested on: MCF7 (Mammary Gland, Adenocarcinoma); assay: Cell viability analysis, breast cancer MCF7; details: for viability at 10 µM: Homo sapiens, MCF7, 72 h
T24 = assay: Cell viability analysis, bladder cancer T24
cancer cell lines = assay: Cell viability analysis (WST-1) on cancer cell lines; details: drug 10 μM, 72 hours, WST-1; Table 3
[8] = tested on: HI650 (Lung Adenocarcinoma); assay: Cell viability analysis, lung cancer HI650; details: for viability at 10 µM: Homo sapiens, NCI-H1650, 72 h
[9] = tested on: SAS (Tongue squamous cell carcinoma); assay: Cell viability analysis, tongue cancer SAS
[10] = tested on: MKN-45 (Gastric Adenocarcinoma); assay: Cell viability analysis, gastric cancer MKN-45; details: for viability at 10 µM: Homo sapiens, MKN-45, 72 h
[11] = tested on: A549 (Lung Adenocarcinoma); assay: Cell viability analysis, lung cancer A549; details: for viability at 10 µM: Homo sapiens, A549, 72 h
[12] = tested on: C-33A (Cervical carcinoma); assay: Cell viability analysis, cervical cancer C-33A
[13] = tested on: MDA-MB-231 (Mammary Gland, Adenocarcinoma); assay: Cell viability analysis, breast cancer MDA-MB-231
[14] = tested on: TSGH-8301 (Urinary Bladder Carcinoma); assay: Cell viability analysis, bladder cancer TSGH-8301; details: Homo sapiens, 72 h
[15] = tested on: A375 (Amelanotic Melanoma); assay: Cell viability analysis, skin cancer A375; details: for viability at 10 µM: Homo sapiens, A-375, 72 h
[16] = tested on: BCC (basal cell carcinoma); assay: Cell viability analysis, skin cancer BCC
U-2OS = assay: Cell viability analysis, osteosarcoma U-2OS; details: U2OS
AsPC-1 = assay: Cell viability analysis, pancreatic cancer AsPC-1
[17] = tested on: HepG2 (Hepatocellular Carcinoma); assay: Cell viability analysis, hepatic cancer HepG2; details: Homo sapiens, HepG2, 72 h
BxPC-3 = assay: Cell viability analysis, pancreatic cancer BxPC-3

N=C(N)c1ccc(OCCCCCOc2ccc(C(=N)N)cc2)cc1 [Pentamidine]
viability at 10 µM ([1]; read-out: The results of antibiotic drug inhibiting cancer cell lines (cell viability analysis), LoVo, repeated experiment): 63.4% | viability at 10 µM ([1]; read-out: cell viability (survival rate), LoVo, drug 10 μM, 72 hours, WST-1, OD450 nm): 74.4% | viability at 10 µM (NIH: OVCAR-3; Homo sapiens, OVCAR-3, 72 h, read-out: The results of antibiotic drug inhibiting cancer cell lines (cell viability analysis), NIH-OVCAR-3): 90.9% | viability at 10 µM ([2]; Homo sapiens, 786-0, 72 h, read-out: The results of antibiotic drug inhibiting cancer cell lines (cell viability analysis), 786-O): 67.3% | viability at 10 µM ([3]; read-out: The results of antibiotic drug inhibiting cancer cell lines (cell viability analysis), AGS, repeated experiment): 92.4% | viability at 10 µM ([3]; read-out: cell viability (survival rate), AGS, drug 10 μM, 72 hours, WST-1, OD450 nm): 50.6% | viability at 10 µM ([4]; read-out: The results of antibiotic drug inhibiting cancer cell lines (cell viability analysis), HeLa, repeated experiment): 44.6% | viability at 10 µM ([4]; read-out: cell viability (survival rate), HeLa, drug 10 μM, 72 hours, WST-1, OD450 nm): 55.9% | viability at 10 µM (TOV-21G; Homo sapiens, TOV21G, 72 h, read-out: The results of antibiotic drug inhibiting cancer cell lines (cell viability analysis), TOV-21G): 82.9% | viability at 10 µM ([5]; Homo sapiens, 72 h, read-out: The results of antibiotic drug inhibiting cancer cell lines (cell viability analysis), Hep3B): 72% | viability at 10 µM [6]: 57.8% | viability at 10 µM ([7]; read-out: The results of antibiotic drug inhibiting cancer cell lines (cell viability analysis), MCF-7, MCF-7, repeated experiment): 60.5% | viability at 10 µM ([7]; read-out: cell viability (survival rate), MCF7, drug 10 μM, 72 hours, WST-1, OD450 nm): 68.5% | viability at 10 µM (T24; Homo sapiens, T-24, 72 h, read-out: The results of antibiotic drug inhibiting cancer cell lines (cell viability analysis), T24): 123% | inhibition effect on different cancer cell lines (cancer cell lines): significant inhibition effect | viability at 10 µM ([8]; read-out: The results of antibiotic drug inhibiting cancer cell lines (cell viability analysis), H1650, H1650, repeated experiment): 68.5% | viability at 10 µM ([8]; read-out: cell viability (survival rate), H1650, drug 10 μM, 72 hours, WST-1, OD450 nm): 65.8% | viability at 10 µM ([9]; Homo sapiens, 72 h, read-out: The results of antibiotic drug inhibiting cancer cell lines (cell viability analysis), SAS): 50.9% | viability at 10 µM ([10]; read-out: The results of antibiotic drug inhibiting cancer cell lines (cell viability analysis), MKN-45, MKN-45, repeated experiment): 97.3% | viability at 10 µM ([10]; read-out: cell viability (survival rate), MKN-45, drug 10 μM, 72 hours, WST-1, OD450 nm): 86.3% | viability at 10 µM ([11]; read-out: The results of antibiotic drug inhibiting cancer cell lines (cell viability analysis), A549, A549, repeated experiment): 35.4% | viability at 10 µM ([11]; read-out: cell viability (survival rate), A549, drug 10 μM, 72 hours, WST-1, OD450 nm): 51.8% | viability at 10 µM ([12]; Homo sapiens, C-33-A, 72 h, read-out: The results of antibiotic drug inhibiting cancer cell lines (cell viability analysis), C-33A): 65.7% | viability at 10 µM ([13]; Homo sapiens, MDA-MB-231, 72 h, read-out: The results of antibiotic drug inhibiting cancer cell lines (cell viability analysis), MDA-MB231): 79% | viability at 10 µM ([14]; read-out: The results of antibiotic drug inhibiting cancer cell lines (cell viability analysis), TSGH-8301, TSGH-8301, repeated experiment): 82.7% | viability at 10 µM ([14]; read-out: cell viability (survival rate), TSGH, drug 10 μM, 72 hours, WST-1, OD450 nm): 59.3% | viability at 10 µM ([15]; read-out: The results of antibiotic drug inhibiting cancer cell lines (cell viability analysis), A375, A375, repeated experiment): 49.8% | viability at 10 µM ([15]; read-out: cell viability (survival rate), A375, drug 10 μM, 72 hours, WST-1, OD450 nm): 38.2% | viability at 10 µM ([16]; Homo sapiens, 72 h, read-out: The results of antibiotic drug inhibiting cancer cell lines (cell viability analysis), BCC): 45.8% | viability at 10 µM (U-2OS; Homo sapiens, 72 h, read-out: The results of antibiotic drug inhibiting cancer cell lines (cell viability analysis), U2OS): 43.9% | viability at 10 µM (AsPC-1; Homo sapiens, ASPC1, 72 h, read-out: The results of antibiotic drug inhibiting cancer cell lines (cell viability analysis), AsPC-1): 66.2% | viability at 10 µM ([17]; read-out: The results of antibiotic drug inhibiting cancer cell lines (cell viability analysis), HepG2, HepG2, repeated experiment): 69.1% | viability at 10 µM ([17]; read-out: cell viability (survival rate), HepG2, drug 10 μM, 72 hours, WST-1, OD450 nm): 76.4% | viability at 10 µM (BxPC-3; Homo sapiens, BXPC-3, 72 h, read-out: The results of antibiotic drug inhibiting cancer cell lines (cell viability analysis), BxPC-3): 55%

Cc1onc(-c2ccccc2Cl)c1C(=O)N[C@@H]1C(=O)N2[C@@H]1SC(C)(C)[C@@H]2C(=O)[O-].[Na+] [Cloxacillin sodium (Cloxacap)]
The results of antibiotic drug inhibiting cancer cell lines (cell viability analysis), LoVo ([1]; repeated experiment): 98.38 | The results of antibiotic drug inhibiting cancer cell lines (cell viability analysis), NIH-OVCAR-3 (NIH: OVCAR-3; NIH-OVCAR-3, repeated experiment): 106.9 | The results of antibiotic drug inhibiting cancer cell lines (cell viability analysis), 786-O ([2]; 786-O, repeated experiment): 106.1 | The results of antibiotic drug inhibiting cancer cell lines (cell viability analysis), HeLa ([4]; repeated experiment): 120.1 | The results of antibiotic drug inhibiting cancer cell lines (cell viability analysis), TOV-21G (TOV-21G; TOV-21G, repeated experiment): 105.9 | The results of antibiotic drug inhibiting cancer cell lines (cell viability analysis), Hep3B ([5]; repeated experiment): 118.4 | The results of antibiotic drug inhibiting cancer cell lines (cell viability analysis), MCF-7 ([7]; MCF-7, repeated experiment): 103.7 | The results of antibiotic drug inhibiting cancer cell lines (cell viability analysis), T24 (T24; T24, repeated experiment): 100.9 | The results of antibiotic drug inhibiting cancer cell lines (cell viability analysis), H1650 ([8]; H1650, repeated experiment): 86.43 | The results of antibiotic drug inhibiting cancer cell lines (cell viability analysis), SAS ([9]; SAS, repeated experiment): 70.4 | The results of antibiotic drug inhibiting cancer cell lines (cell viability analysis), MKN-45 ([10]; MKN-45, repeated experiment): 111.3 | The results of antibiotic drug inhibiting cancer cell lines (cell viability analysis), A549 ([11]; A549, repeated experiment): 98.33 | The results of antibiotic drug inhibiting cancer cell lines (cell viability analysis), C-33A ([12]; C-33A, repeated experiment): 104.6 | The results of antibiotic drug inhibiting cancer cell lines (cell viability analysis), MDA-MB231 ([13]; MDA-MB231, repeated experiment): 101.6 | The results of antibiotic drug inhibiting cancer cell lines (cell viability analysis), A375 ([15]; A375, repeated experiment): 110.7 | The results of antibiotic drug inhibiting cancer cell lines (cell viability analysis), BCC ([16]; BCC, repeated experiment): 116.6 | The results of antibiotic drug inhibiting cancer cell lines (cell viability analysis), U2OS (U-2OS; repeated experiment): 69.87 | The results of antibiotic drug inhibiting cancer cell lines (cell viability analysis), AsPC-1 (AsPC-1; AsPC-1, repeated experiment): 80 | The results of antibiotic drug inhibiting cancer cell lines (cell viability analysis), BxPC-3 (BxPC-3; BxPC-3, repeated experiment): 69.13
